Drawing on US12583818B2 (DAEGU-GYEONGBUK MEDICAL INNOVATION FOUNDATION, priority 2020, dated 2026), this text covers IC50 for 41 molecules.

The structures appear in SMILES notation.

The target in the assay is T1, Pin1 (Homo sapiens, UniProt Q13526).
T1 construct: purchased Anaspec
T1 sequence (Q13526 whole entry): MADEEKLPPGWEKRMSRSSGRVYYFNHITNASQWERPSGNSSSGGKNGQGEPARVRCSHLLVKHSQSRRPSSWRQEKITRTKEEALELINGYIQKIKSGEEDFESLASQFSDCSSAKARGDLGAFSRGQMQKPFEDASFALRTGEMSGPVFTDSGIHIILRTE
As to the kind of experiment: Evaluation of Pin1 enzyme inhibitory activity (Sensolyte Green Pin1 assay kit). Format: biochemical. To be noted: concentration at which the Pin1 enzyme activity is inhibited; 2 hours at room temperature, fluorescence 490 nm/520 nm; read-out: Pin 1 inhibition. The protocol: In order to evaluate the Pin1 enzyme inhibitory activity of the compound represented by formula 1 according to the present invention, the following experiment was performed, and the results are shown in Table 2 below.
The enzyme activity of Pin1 protein was measured using a sensolyte Green Pin1 assay kit of Anaspec. The substrate was diluted in a buffer at a ratio of 1:100 to prepare a concentration of 1 μM, and the protein was diluted in a buffer at a ratio of 1:20 to prepare a concentration of 50 μg/ml. In addition, a developing solution was prepared by diluting thereof in a buffer at a ratio of 1:100.
The compound prepared in each example was diluted with DMSO and prepared at a concentration of 100 μM, 10 μM, 1 μM or 0.1 μM using a buffer. After sequentially adding 10 μl of the compound prepared in each Example diluted to four concentrations according to the above method, 10 μl of Pin1 protein, and 30 μl of the developing solution to each well of a black 96-well plate, […]. Finally, 50 μl of the substrate was added to each well of the plate, and the enzyme reaction was carried out after shaking the plate for 10 seconds.
Then, the plate was incubated for 2 hours at room temperature in an environment without light, and the fluorescence values at 490 nm/520 nm wavelength were measured using a device of Synergy Neo […]. The results are shown in Table 2 below by dividing the grades of A to D for each concentration (μM) at which the Pin1 enzyme activity is inhibited.
For `CCCCOc1ccc(S(=O)(=O)NCCCc2ccc(-c3ccccc3)cc2)cc1` [Example 1, N-(3-([1,1′-biphenyl]-4-yl)propyl)-4-butoxybenzenesulfonamide], the IC50 was above 100 µM.

In the case of `CCCCOc1ccc(S(=O)(=O)NCCCN2CCN(C(C)C)CC2)cc1` [Example 2, 4-butoxy-N-(3-(4-isopropylpiperazin-1-yl)propyl)benzenesulfonamide], the IC50 was above 100 µM.

Regarding `CCCCOc1ccc(S(=O)(=O)NCCCc2ccc(Cl)cc2)cc1` [Example 3, 4-butoxy-N-(3-(4-chlorophenyl)propyl)benzenesulfonamide], the IC50 is above 100 µM.

Turning to `CCCCOc1ccc(S(=O)(=O)NCCCC2CCCCC2)cc1` [Example 4, 4-butoxy-N-(3-cyclohexylpropyl)benzenesulfonamide], the IC50 is above 100 µM.

For `CCCCOc1ccc(S(=O)(=O)NCCCc2cccnc2)cc1` [Example 5, 4-butoxy-N-(3-(pyridin-3-yl)propyl)benzensulfonamide], the IC50 is above 100 µM.

For the molecule `CCCCOc1ccc(S(=O)(=O)NCCCN2CCOCC2)cc1` [Example 6, 4-butoxy-N-(3-morpholinopropyl)benzenesulfonamide], the IC50 is above 100 µM.

For `CCCCOc1ccc(S(=O)(=O)NCCc2ccc(N3CCOCC3)cc2)cc1` [Example 7, 4-butoxy-N-(4-morpholinophenethyl)benzenesulfonamide], the IC50 is above 100 µM.

On to `CCCCOc1ccc(S(=O)(=O)NCCc2ccc(C(=O)O)cc2)cc1` [Example 8, 4-(2-(4-butoxyphenylsulfonamido)ethyl)benzoic acid], for which the IC50 was above 100 µM.

With `CCCCOc1ccc(S(=O)(=O)NCCc2ccc(C(=O)OC)cc2)cc1` [Example 9, methyl 4-(2-(4-butoxyphenylsulfonamido)ethyl)benzoate], the IC50 is above 100 µM.

In the case of `CCCCOc1ccc(S(=O)(=O)NCCN2CCC(Cc3ccccc3)CC2)cc1` [Example 10, N-(2-(4-benzylpiperidin-1-yl)ethyl)-4-butoxybenzenesulfonamide], the IC50 is above 100 µM.

Turning to `CCCCOc1ccc(S(=O)(=O)NCCC(O)c2ccccc2)cc1` (centres unmarked) [Example 11, 4-butoxy-N-(3-hydroxy-3-phenylpropyl)benzenesulfonamide], the IC50 lay in the range of 10 to 100 µM.

For the molecule `CCCCOc1ccc(S(=O)(=O)NCCC(=O)c2ccccc2)cc1` [Example 12, 4-butoxy-N-(3-oxo-3-phenylpropyl)benzenesulfonamide], the IC50 lay in the range of 10 to 100 µM.

Consider `CCCCOc1ccc(S(=O)(=O)NCCCN2CCCC2=O)cc1` [Example 13, 4-butoxy-N-(3-(2-oxopyrrolidin-1-yl)propyl)benzenesulfonamide], for which the IC50 was above 100 µM.

`CN(C)CCCOc1ccc(S(=O)(=O)NCCc2ccccc2)cc1` [Example 14, 4-(3-(dimethylamino)propoxy)-N-phenethylbenzenesulfonamide]: the IC50 is above 100 µM.

As for `CN(C)CCCOc1ccc(S(=O)(=O)NCCCc2ccccc2)cc1` [Example 15, 4-(3-(dimethylamino)propoxy)-N-(3-phenylpropyl)benzenesulfonamide], the IC50 is above 100 µM.

As for `COC(=O)c1ccc(CCNS(=O)(=O)c2ccc(OCCCN(C)C)cc2)cc1` [Example 16, methyl 4-(2-(4-(3-(dimethylamino)propoxy)phenylsulfonamido)ethyl)benzoate], the IC50 is above 100 µM.

As for `CN(C)CCCOc1ccc(S(=O)(=O)NCCc2ccc(C(=O)O)cc2)cc1` [Example 17, 4-(2-(4-(3-(dimethylamino)propoxy)phenylsulfonamido)ethyl)benzoic acid], the IC50 is above 100 µM.

Turning to `CN(C)CCCOc1ccc(S(=O)(=O)NCCCN2CCCC2=O)cc1` [Example 18, 4-(3-(dimethylamino)propoxy)-N-(3-(2-oxopyrrolidin-1-yl)propyl)benzenesulfonamide], the IC50 is above 100 µM.

On to `CCCCOc1ccc(S(=O)(=O)NCCCc2cccc3ccccc23)cc1` [Example 19, 4-butoxy-N-(3-(naphthalen-1-yl)propyl)benzenesulfonamide], for which the IC50 was above 100 µM.

Consider `CCCCOc1ccc(S(=O)(=O)NCCCc2c[nH]c3ccccc23)cc1` [Example 20, N-(3-(1H-indol-3-yl)propyl)-4-butoxybenzenesulfonamide], for which the IC50 was 10 to 100 µM.

`CN(C)CCOc1ccc(S(=O)(=O)NCCCc2c[nH]c3ccccc23)cc1` [Example 21, N-(3-(1H-indol-3-yl)propyl)-4-(2-(dimethylamino)ethoxy)benzenesulfonamide]: the IC50 was 10 to 100 µM.

In the case of `CCCCOc1ccc(S(=O)(=O)NCCc2nc3ccccc3[nH]2)cc1` [Example 23], the IC50 was above 100 µM.

Take `CCCCOc1ccc(S(=O)(=O)NCCc2c[nH]c3ccccc23)cc1` [Example 24, N-(2-(1H-indol-3-yl)ethyl)-4-butoxybenzenesulfonamide]: the IC50 was above 100 µM.

With `CCCCOc1ccc(S(=O)(=O)NCCc2cc3ccccc3[nH]2)cc1` [Example 25, N-(2-(1H-indol-2-yl)ethyl)-4-butoxybenzenesulfonamide], the IC50 is above 100 µM.

For the molecule `CC(C)CCOc1ccc(S(=O)(=O)NCCCc2c[nH]c3ccccc23)cc1` [Example 26, N-(3-(1H-indol-3-yl)propyl)-4-(isopentyloxy)benzenesulfonamide], the IC50 lay within 10 to 100 µM.

Take `CCCCCOc1ccc(S(=O)(=O)NCCCc2c[nH]c3ccccc23)cc1` [Example 27, N-(3-(1H-indol-3-yl)propyl)-4-(pentyloxy)benzenesulfonamide]: the IC50 lay within 10 to 100 µM.

In the case of `CCCCOc1ccc(S(=O)(=O)NCCCc2nc3ccccc3[nH]2)cc1` [Example 28, N-(3-(1H-benzo[d]imidazol-2-yl)propyl)-4-butoxybenzenesulfonamide], the IC50 is above 100 µM.

For the molecule `CCCCOc1ccc(S(=O)(=O)NCCc2c[nH]c3ccc(O)cc23)cc1` [Example 29, 4-butoxy-N-(2-(5-hydroxy-1H-indol-3-yl)ethyl)benzenesulfonamide], the IC50 was above 100 µM.

Consider `O=S(=O)(NCCCc1c[nH]c2ccccc12)c1ccc(OCCCN2CCOCC2)cc1` [Example 30, N-(3-(1H-indol-3-yl)propyl)-4-(3-morpholinopropoxy)benzenesulfonamide], for which the IC50 is above 100 µM.

On to `CCCCOc1ccc(S(=O)(=O)NCCCn2ccc3ccccc32)cc1` [Example 32, N-(3-(1H-indol-1-yl)propyl)-4-butoxybenzenesulfonamide], for which the IC50 was above 100 µM.

Turning to `CCCCOc1ccc(S(=O)(=O)NCCCn2cnc3ccccc32)cc1` [Example 33, N-(3-(1H-benzo[d]imidazol-1-yl)propyl)-4-butoxybenzenesulfonamide], the IC50 was above 100 µM.

Turning to `CN(C)CCCOc1ccc(S(=O)(=O)NCCc2nc3ccccc3[nH]2)cc1` [Example 37, N-(2-(1H-benzo[d]imidazol-2-yl)ethyl)-4-(3-(dimethylamino)propoxy)benzenesulfonamide], the IC50 was above 100 µM.

As to `CN(C)CCCOc1ccc(S(=O)(=O)NCCc2cc3ccccc3[nH]2)cc1` [Example 38, N-(2-(1H-indol-2-yl)ethyl)-4-(3-(dimethylamino)propoxy)benzenesulfonamide], the IC50 is above 100 µM.

For the molecule `CN(C)CCCOc1ccc(S(=O)(=O)NCCCn2ccc3ccccc32)cc1` [Example 39, N-(3-(1H-indol-1-yl)propyl)-4-(3-(dimethylamino)propoxy)benzenesulfonamide], the IC50 is above 100 µM.

As to `CN(C)CCCOc1ccc(S(=O)(=O)NCCCn2cnc3ccccc32)cc1` [Example 40, N-(3-(1H-benzo[d]imidazol-1-yl)propyl)-4-(3-(dimethylamino)propoxy)benzenesulfonamide], the IC50 is above 100 µM.

In the case of `CN1CCN(CCCOc2ccc(S(=O)(=O)NCCCn3ccc4ccccc43)cc2)CC1` [Example 41, N-(3-(1H-indol-1-yl)propyl)-4-(3-(4-methylpiperazin-1-yl)propoxy)benzenesulfonamide], the IC50 was above 100 µM.

With `CN1CCN(CCCOc2ccc(S(=O)(=O)NCCCn3cnc4ccccc43)cc2)CC1` [Example 42, N-(3-(1H-benzo[d]imidazol-1-yl)propyl)-4-(3-(4-methylpiperazin-1-yl)propoxy)benzenesulfonamide], the IC50 is above 100 µM.

For the molecule `O=S(=O)(NCCCc1c[nH]c2ccccc12)c1ccc(OCCCN2CCCCC2)cc1` [Example 43, N-(3-(1H-indol-3-yl)propyl)-4-(3-(piperidin-1-yl)propoxy)benzenesulfonamide], the IC50 is 10 to 100 µM.

Take `CN(C)CCCOc1ccc(S(=O)(=O)NCCCc2cn(C)c3ccccc23)cc1` [Example 46, 4-(3-(dimethylamino)propoxy)-N-(3-(1-methyl-1H-indole-3-yl)propyl)benzenesulfonamide]: the IC50 is above 100 µM.

For the molecule `O=S(=O)(NCCCc1c[nH]c2ccccc12)c1ccc(Br)cc1` [Example 47, N-(3-(1H-indole-3-yl)propyl)-4-bromobenzenesulfonamide], the IC50 was above 100 µM.

As for `CC(C)N1CCN(CCCOc2ccc(S(=O)(=O)NCCCc3c[nH]c4ccccc34)cc2)CC1` [Example 48, N-(3-(1H-indol-3-yl)propyl)-4-(3-(4-isopropylpiperazin-1-yl)propoxy)benzenesulfonamide], the IC50 is 10 to 100 µM.
